# In PubChem BioAssay AID1417 (Emory University Molecular Libraries Screening Center, 2008):
# Molecular target: Induced myeloid leukemia cell differentiation protein Mcl-1 (Homo sapiens) (UniProt Q07820)
# Assay: Mcl-1/Noxa binding inhibitor potency, dose response, biochemical, TR-FRET (AID 1417)
# Conditions: Mcl-1/Noxa peptide interaction, cell-free TR-FRET (terbium/rhodamine), 2 h; measured here: absolute IC50
# Sequence of Induced myeloid leukemia cell differentiation protein Mcl-1 (Homo sapiens) (Q07820 whole entry, looked up): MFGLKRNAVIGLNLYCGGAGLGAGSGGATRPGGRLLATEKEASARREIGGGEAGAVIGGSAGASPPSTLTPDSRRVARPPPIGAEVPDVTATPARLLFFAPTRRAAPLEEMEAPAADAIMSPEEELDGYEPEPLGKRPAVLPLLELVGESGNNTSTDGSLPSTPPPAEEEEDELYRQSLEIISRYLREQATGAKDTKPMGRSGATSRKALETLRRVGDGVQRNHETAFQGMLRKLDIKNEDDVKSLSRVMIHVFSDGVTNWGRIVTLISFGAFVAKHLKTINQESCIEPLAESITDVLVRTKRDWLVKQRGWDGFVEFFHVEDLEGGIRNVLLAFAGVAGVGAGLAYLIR
row,Structure (SMILES),IC50 [µM]
1,COc1ccc2[nH]c3c(=O)n(Cc4ccc(C(=O)N5CCCC5)cc4)c(=S)[nH]c3c2c1,> 54
2,COc1ccc(C(c2c(O)cc(C)oc2=O)c2c(O)cc(C)oc2=O)cc1,> 54
3,COc1ccc(C(=O)n2nc(C)c(Br)c2C)cc1,> 54
4,O=C(O)c1cccc2c1NC(C(=O)O)C1CC(Sc3ccccc3[N+](=O)[O-])C(Cl)C21 (stereo not given),0.881
5,COc1ccc(OC)c(/C=N/c2oc(-c3ccco3)c(-c3ccco3)c2C#N)c1,9.72
6,CC1CC(=O)c2c(cc3c(-c4c(O)cc(O)c5c(O)c6c(cc45)OC(C)CC6=O)c(O)cc(O)c3c2O)O1 (stereo not given),< 0.4
7,Cc1ccc(NC(=O)Cn2c(O)c(N=NC(=O)c3cc4ccccc4cc3O)c3ccccc32)cc1,2.98
8,O=C(O)c1ccccc1NS(=O)(=O)c1ccc(NNC(=S)Nc2ccc(OC(F)F)cc2)c([N+](=O)[O-])c1,< 0.4
9,O=C(NCCc1ccccc1)c1ccc2nc(-c3ccco3)c(-c3ccco3)nc2c1,2
10,Nc1nc(=S)c2ncn(C3OC(CO)C(O)C3O)c2[nH]1 (stereo not given),9.52
11,Nc1ccc(C2=Nc3cccc4cccc(c34)N2)cc1,< 0.4
12,COc1ccc(-n2cccc2/C=C2\C(=N)N3N=C(c4ccco4)SC3=NC2=O)cc1,< 0.4
13,O=C1NN(c2ccc(Cl)cc2)C(=O)/C1=C\c1ccc(-c2cccc(C(=O)O)c2)o1,0.894
14,Cn1c(SCC(=O)Nc2ccc3nc(SCC(=O)N4CCCC4)sc3c2)nnc1-c1ccccc1,2.24
15,CC(=O)Nc1ccc(C2=NNC(=Nc3cccc(S(=O)(=O)N(C)C)c3)SC2)cc1,3.03
16,CCN(CC)S(=O)(=O)c1cc(NC(=O)Cn2ncc(Cl)c(Cl)c2=O)ccc1C,3.26
17,CC1=C(C#N)C(=O)NC(=O)/C1=C\c1ccc(-c2cc(C)c(C)cc2[N+](=O)[O-])o1,< 0.4
18,CCc1nc(Nc2ccc(N3CCN(C(C)=O)CC3)cc2)c2oc3ccccc3c2n1,> 54
19,O=C1NC(=S)NC(=O)C1=Cc1ccc2c(c1)CCN2CCCCl,< 0.4
20,O=C(O)c1ccccc1N/N=C/c1c(Sc2nnnn2-c2ccccc2)nc2ccccn2c1=O,< 0.4

row,Structure (SMILES),IC50 [µM]
1,O=C(CNc1ccc2ccccc2c1)N/N=C/C=C/c1cccc([N+](=O)[O-])c1,7.27
2,Cc1cc2c(C(C)C)c(O)c(O)c(C=O)c2c(O)c1-c1c(C)cc2c(C(C)C)c(O)c(O)c(C=O)c2c1O,< 0.4
3,CCN(CC)S(=O)(=O)c1ccc(N2CCOCC2)c(NC(=O)c2c3c(nc4ccccc24)CCC3)c1,5.73
4,CN(C)c1ccc(C(CNC(=O)c2ccccc2Br)c2c[nH]c3ccccc23)cc1 (stereo not given),> 54
5,O=C(O)CCn1cc(C=C2C(=O)NC(=S)NC2=O)c(-c2cccc(Br)c2)n1,2.18
6,CCOC(=O)C1=C(O)/C(=C/c2cc(OC)c(O)c(OC)c2)SC1=Nc1ccc(OC)cc1,> 54
7,CCOC(=O)c1c(NC(C)=O)sc2c(O)c(Br)cc(Br)c12,8.58
8,C=CCOc1c(OC)cc(/C=N/Nc2cccc(C(=O)O)c2)c(Br)c1Br,> 54
9,CCCSC1=N/C(=C\c2ccc([N+](=O)[O-])o2)C(=O)S1,3.01
10,COc1cc(/C=N\Nc2nc(-c3cccs3)c(NC(C)=O)s2)ccc1O,< 0.4
11,Cc1ccc(-n2c(O)c(/C=N/Nc3ccc(S(=O)(=O)N4CCOCC4)cc3[N+](=O)[O-])c3ccccc3c2=O)c(C)c1,> 54
12,COc1ccc2nc(Nc3sc4c(c3C(N)=O)CCCC4)sc2c1,< 0.4
13,CC(=O)c1ccc(NC(=O)CSc2ccsc2[N+](=O)[O-])cc1,> 54
14,Oc1ccc(-c2cn3c(n2)SCC3)cc1O,1.94
15,Cc1cccn2c(=O)c3cc(C(=O)NCc4ccco4)c(=N)n(CCc4ccccc4)c3nc12,3.15
16,CCSc1ncc(/C=N/Nc2ccc([N+](=O)[O-])cc2)n1C,2.12
17,O=c1c(Cl)c(N/N=C/c2ccc(Cl)cc2)cnn1-c1ccccc1,4.42
18,COc1ccc(/C=C2/C(=O)NC(=S)N(C3CC3)C2=O)cc1CN1C(=O)c2ccccc2C1=O,3.11
19,COc1ccc(C(=O)N2c3ccccc3CC2C)cc1OC (stereo not given),> 54
20,NC(=O)c1c(NC(=O)CSc2nnc(-c3ccco3)n2-c2ccccc2)sc2c1CCC2,5.75
